Experimental data: patent US20210387996A1, “TRICYCLIC COMPOUNDS FOR THE TREATMENT AND PROPHYLAXIS OF HEPATITIS B VIRUS DISEASE” (priority 2018, published 2021)

test system: HBeAg level in HepDES19 cells (surrogate marker for cccDNA); assay: Engineered HepDES19 primary screen assay (HBeAg as surrogate marker for cccDNA); format: cell-based, HBV; settings: Hepatitis B virus, HepDES19, 120 h, read-out: IC50 (HBeAg level, HepDES19 primary screen assay)
Source text: The assay was employed to screen for novel cccDNA inhibitors. HepDES19 is a cccDNA-producing cell line. In this cell line, HBeAg in the cell culture supernatant as surrogate marker, as HBeAg production depends on cccDNA level and activity. HepDES19 is an engineered cell line which contains a 1.1 unit length HBV genome, and pgRNA transcription from the transgene is controlled by Tetracycline (Tet). In the absence of Tet, pgRNA transcription will be induced, but HBV e antigen (HBeAg) could not be produced from this pgRNA due to very short leader sequence before the HBeAg start codon and the start codon is disrupted. Only after cccDNA is formed, the missing leader sequence and start codon mutation would be restored from the 3′-terminal redundancy of pgRNA, and then HBeAg could be synthesized. Therefore, HBeAg could be used as a surrogate marker for cccDNA (Zhou, T. et al., Antiviral Res. (2006), 72(2), 116-124; Guo, H. et al., J. Virol. (2007), 81(22), 12472-12484).
HepDES19 cells were seeded at 2×10^6 cells per T150 flask and cultured with the culture medium (Dulbecco's Modified Eagle Medium: Nutrient Mixture F-12 [DMEM-F12, Gibco Cat. 11320-82], 10% Fetal Bovine Serum [FBS, Clontech Cat. 631101], 0.1 mM Non-Essential Amino Acids Solution [NEAA, Gibco Cat. 11140-050], 50 μg/mL Penicillin-Streptomycin [PS, Invitrogen Cat. 15140-163], 500 μg/mL Geneticin [G418, Invitrogen Cat. 10131-027]) containing 3 μg/mL Tet (Sigma, Cat. 87128) for 5 days. Cells were then seeded at 4×10^6 cells per T150 in the same culture medium as described above in the absence of Tet for 8 days. Cells were then harvested and frozen at density of 2×10^6 cells per mL. For compound testing, the frozen cells were thawed and seeded into 96-well plates at a density of 6×10^4 cells per well. At 24 hours after seeding, half log serial dilutions of compounds made with Dimethyl sulfoxide (DMSO, Sigma, Cat. D2650) were further diluted with the same culture medium as described above before they were added to the cells to reach desired final compound concentrations and 1% DMSO concentration. Plates were then incubated at 37° C. for another 5 days before measurement of HBeAg level and cell viability. Intracellular HBeAg level were measured with enzyme-linked immunosorbent assay (ELISA) kit (Shanghai Kehua Diagnostic Medical Products Co., Ltd). Cell viability was assessed using Cell Counting Kit-8 (Donjindo, Cat. CK04-20). IC50 values were derived from the dose-response curve using 4 parameter logistic curve fit method.
The compounds of the present invention were tested for their capacity to inhibit extracellular HBeAg level as described herein.

Row | SMILES | IC50 [µM]
1 | O=c1c2c(oc3c(Cl)cccc13)CN(Cc1ccccc1)CC2 [Example 2, 2-benzyl-9-chloro-3,4-dihydro-1H-chromeno[2,3-c]pyridin-5(2H)-one] | 49.8
2 | COC(=O)c1cccc(CN2CCc3c(oc4c(Cl)cccc4c3=O)C2)c1 [Example 3, methyl 3-((9-chloro-5-oxo-3,4-dihydro-1H-chromeno[2,3-c]pyridin-2(5H)-yl)methyl)benzoate] | 30.7
3 | O=C(c1ccccc1F)N1CCc2c(oc3c(Cl)cccc3c2=O)C1 [Example 4, 9-chloro-2-(2-fluorobenzoyl)-3,4-dihydro-1H-chromeno[2,3-c]pyridin-5-one] | 23.4
4 | COc1ccc(CN2CCc3c(oc4c(Cl)cccc4c3=O)C2=O)cc1 [Example 5, 9-chloro-2-[(4-methoxyphenyl)methyl]-3,4-dihydrochromeno[2,3-c]pyridine-1,5-dione] | 26
5 | O=C(c1nccc2ccccc12)N1CCc2c(oc3c(Cl)cccc3c2=O)C1 [Example 6, 9-chloro-2-(isoquinoline-1-carbonyl)-3,4-dihydro-1H-chromeno[2,3-c]pyridin-5(2H)-one] | 21.6
6 | O=C(Nc1ccccc1F)N1CCc2c(oc3c(Cl)cccc3c2=O)C1 [Example 7, 9-chloro-N-(2-fluorophenyl)-5-oxo-3,4-dihydro-1H-chromeno[2,3-c]pyridine-2(5H)-carboxamide] | 39.8
7 | COC(=O)c1cccc(N2CCc3c(oc4c(Cl)cccc4c3=O)C2=O)c1 [Example 8, methyl 3-(9-chloro-1,5-dioxo-3,4-dihydro-1H-chromeno[2,3-c]pyridin-2(5H)-yl)benzoate] | 0.23
8 | COC(=O)c1ccc(N2CCc3c(oc4c(Cl)cccc4c3=O)C2=O)cc1 [Example 10, methyl 4-(9-chloro-1,5-dioxo-3,4-dihydro-1H-chromeno[2,3-c]pyridin-2(5H)-yl)benzoate] | 7.78
9 | O=C(O)C1CC(Oc2ccc(N3CCc4c(oc5c(Cl)cccc5c4=O)C3=O)cc2)C1 (stereo not shown) [Example 11, 3-(4-(9-chloro-1,5-dioxo-3,4-dihydro-1H-chromeno[2,3-c]pyridin-2(5H)-yl)phenoxy)cyclobutanecarboxylic Acid] | 19
10 | COC(=O)c1ccc(N2CCc3c(oc4c(Cl)cccc4c3=O)C2)nc1 [Example 13, methyl 6-(9-chloro-5-oxo-3,4-dihydro-1H-chromeno[2,3-c]pyridin-2(5H)-yl)nicotinate] | 41.6
11 | O=C1c2oc3c(Cl)cccc3c(=O)c2CCN1c1ccc(Br)cc1 [Example 15, 2-(4-bromophenyl)-9-chloro-3,4-dihydro-2H-chromeno[2,3-c]pyridine-1,5-dione] | 10.5
12 | O=C1c2oc3c(Cl)cccc3c(=O)c2CCN1c1cccc(OC(F)(F)F)c1 [Example 21, 9-chloro-2-(3-(trifluoromethoxy)phenyl)-3,4-dihydro-2H-chromeno[2,3-c]pyridine-1,5-dione] | 47.5
13 | COC(=O)c1cc(N2CCc3c(oc4c(Cl)cccc4c3=O)C2=O)ccc1Cl [Example 24, methyl 2-chloro-5-(9-chloro-1,5-dioxo-1,3,4,5-tetrahydro-2H-chromeno[2,3-c]pyridin-2-yl)benzoate] | 46.1
14 | N#Cc1ccc(N2CCc3c(oc4c(Cl)cccc4c3=O)C2=O)cc1 [Example 30, 4-(9-chloro-1,5-dioxo-1,3,4,5-tetrahydro-2H-chromeno[2,3-c]pyridin-2-yl)benzonitrile] | 32.5
15 | Cc1ccc(C)c(N2CCc3c(oc4c(Cl)cccc4c3=O)C2=O)c1 [Example 31, 9-chloro-2-(2,5-dimethylphenyl)-3,4-dihydro-2H-chromeno[2,3-c]pyridine-1,5-dione] | 7.13
16 | O=C1c2oc3c(Cl)cccc3c(=O)c2CCN1c1ccc(OC(F)(F)F)cc1Cl [Example 32, 9-chloro-2-(2-chloro-4-(trifluoromethoxy)phenyl)-3,4-dihydro-2H-chromeno[2,3-c]pyridine-1,5-dione] | 10.8

Row | SMILES | IC50 [µM]
17 | O=C1c2oc3c(Cl)cccc3c(=O)c2CCN1c1ccc(OC(F)(F)F)cc1 [Example 33, 9-chloro-2-(4-(trifluoromethoxy)phenyl)-3,4-dihydro-2H-chromeno[2,3-c]pyridine-1,5-dione] | 1.84
18 | Cc1ccc(N2CCc3c(oc4c(Cl)cccc4c3=O)C2=O)cc1 [Example 34, 9-chloro-2-(p-tolyl)-3,4-dihydro-2H-chromeno[2,3-c]pyridine-1,5-dione] | 6.01
19 | COC(=O)c1cc(Cl)ccc1N1CCc2c(oc3c(Cl)cccc3c2=O)C1=O [Example 36, methyl 5-chloro-2-(9-chloro-1,5-dioxo-1,3,4,5-tetrahydro-2H-chromeno[2,3-c]pyridin-2-yl)benzoate] | 21.6
20 | N#Cc1cc(Cl)ccc1N1CCc2c(oc3c(Cl)cccc3c2=O)C1=O [Example 37, 5-chloro-2-(9-chloro-1,5-dioxo-1,3,4,5-tetrahydro-2H-chromeno[2,3-c]pyridin-2-yl)benzonitrile] | 12.2
21 | Cc1cc(Cl)ccc1N1CCc2c(oc3c(Cl)cccc3c2=O)C1=O [Example 38, 9-chloro-2-(4-chloro-2-methylphenyl)-3,4-dihydro-2H-chromeno[2,3-c]pyridine-1,5-dione] | 2.12
22 | O=c1c2c(oc3c(Cl)cccc13)CN(c1ccc(Cl)cc1)CC2 [Example 42, 9-chloro-2-(4-chlorophenyl)-1,2,3,4-tetrahydro-5H-chromeno[2,3-c]pyridin-5-one] | 4.26
23 | O=C1c2oc3c(Cl)cccc3c(=O)c2CCN1c1ncc(Cl)cc1C(F)(F)F [Example 43, 9-chloro-2-(5-chloro-3-(trifluoromethyl)pyridin-2-yl)-3,4-dihydro-2H-chromeno[2,3-c]pyridine-1,5-dione] | 30.1
24 | O=C1c2oc3c(Cl)cccc3c(=O)c2CCN1c1ccc(Cl)cc1Br [Example 44, 2-(2-bromo-4-chlorophenyl)-9-chloro-3,4-dihydro-2H-chromeno[2,3-c]pyridine-1,5-dione] | 6.22
25 | COc1ccc(COc2cc(Cl)cnc2N2CCc3c(oc4c(Cl)cccc4c3=O)C2=O)cc1 [Example 45, 9-chloro-2-(5-chloro-3-((4-methoxybenzyl)oxy)pyridin-2-yl)-3,4-dihydro-2H-chromeno[2,3-c]pyridine-1,5-dione] | 6.24
26 | COCOc1cc(Cl)ccc1N1CCc2c(oc3c(Cl)cccc3c2=O)C1=O [Example 46, 9-chloro-2-(4-chloro-2-(methoxymethoxy)phenyl)-3,4-dihydro-2H-chromeno[2,3-c]pyridine-1,5-dione] | 9.84
27 | O=C(c1cc(Cl)ccc1N1CCc2c(oc3c(Cl)cccc3c2=O)C1=O)N1CCCC1 [Example 47, 9-chloro-2-(4-chloro-2-(pyrrolidine-1-carbonyl)phenyl)-3,4-dihydro-2H-chromeno[2,3-c]pyridine-1,5-dione] | 3.29
28 | CCOc1cc(Cl)ccc1N1CCc2c(oc3c(Cl)cccc3c2=O)C1=O [Example 48, 9-chloro-2-(4-chloro-2-ethoxyphenyl)-3,4-dihydro-2H-chromeno[2,3-c]pyridine-1,5-dione] | 6.9
29 | O=c1c2c(oc3c(Cl)cccc13)CN(c1ccc(Cl)c(Cl)c1)CC2 [Example 49, 9-chloro-2-(3,4-dichlorophenyl)-1,2,3,4-tetrahydro-5H-chromeno[2,3-c]pyridin-5-one] | 40.1
30 | COCc1cc(Cl)ccc1N1CCc2c(oc3c(Cl)cccc3c2=O)C1=O [Example 50, 9-chloro-2-(4-chloro-2-(methoxymethyl)phenyl)-3,4-dihydro-2H-chromeno[2,3-c]pyridine-1,5-dione] | 26.4
31 | COc1ccc(N2Cc3c(oc4c(Cl)cccc4c3=O)C2=O)cc1 [Example 52, 5-chloro-2-(4-methoxyphenyl)-1H-chromeno[2,3-c]pyrrole-3,9-dione] | 37.7
